Common to all, as to assay type: cell-based
One experiment relates to 3T3 L1 adipocytes. Nature of the experiment: Lipogenesis in 3T3 L1 adipocytes. As to conditions: 20 mins., EB, ATA 200 μg/ml, insulin 600 ng/ml. The procedure: FIG. 11 is the metabolic effects in 3T3 L1 adipocytes: Fully differentiated 3T3 L1 adipocytes were incubated with EB, ATA or fuchsin (FUCH) each at 200 μg/ml, or with 600 ng/ml of insulin for 20 mins. (A, B, C) or 5 mins. (D). CON indicates no additive.
C--Lipogenesis. Cells were incubated with 5 mM(U-^14 C) glucose (1 μCi/ml) for 60 mins. Radioactivity was determined in the cellular lipid fraction.

The target of a further experiment is T1, IGF-1 receptor β subunit (Homo sapiens, UniProt P08069).
T1 construct: endogenous in cells; host or cells: MCF-7
T1 sequence (P08069 741-1367 limits assumed): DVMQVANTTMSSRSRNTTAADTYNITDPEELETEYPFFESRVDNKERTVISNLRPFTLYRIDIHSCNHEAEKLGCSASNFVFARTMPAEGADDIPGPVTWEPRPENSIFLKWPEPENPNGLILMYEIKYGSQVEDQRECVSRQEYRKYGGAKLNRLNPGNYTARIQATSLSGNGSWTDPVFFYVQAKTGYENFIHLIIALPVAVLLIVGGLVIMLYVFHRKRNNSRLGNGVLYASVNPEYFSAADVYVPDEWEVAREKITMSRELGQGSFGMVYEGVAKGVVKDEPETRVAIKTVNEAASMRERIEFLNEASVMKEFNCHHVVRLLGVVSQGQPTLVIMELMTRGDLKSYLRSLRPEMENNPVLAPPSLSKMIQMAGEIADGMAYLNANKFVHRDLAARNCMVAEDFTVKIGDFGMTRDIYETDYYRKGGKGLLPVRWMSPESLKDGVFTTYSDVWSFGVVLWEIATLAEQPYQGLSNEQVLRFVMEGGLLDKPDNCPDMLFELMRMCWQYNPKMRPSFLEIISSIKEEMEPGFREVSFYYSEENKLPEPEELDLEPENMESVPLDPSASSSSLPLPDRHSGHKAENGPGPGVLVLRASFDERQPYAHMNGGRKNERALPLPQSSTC
T1 sequence (P08069 31-736 limits assumed): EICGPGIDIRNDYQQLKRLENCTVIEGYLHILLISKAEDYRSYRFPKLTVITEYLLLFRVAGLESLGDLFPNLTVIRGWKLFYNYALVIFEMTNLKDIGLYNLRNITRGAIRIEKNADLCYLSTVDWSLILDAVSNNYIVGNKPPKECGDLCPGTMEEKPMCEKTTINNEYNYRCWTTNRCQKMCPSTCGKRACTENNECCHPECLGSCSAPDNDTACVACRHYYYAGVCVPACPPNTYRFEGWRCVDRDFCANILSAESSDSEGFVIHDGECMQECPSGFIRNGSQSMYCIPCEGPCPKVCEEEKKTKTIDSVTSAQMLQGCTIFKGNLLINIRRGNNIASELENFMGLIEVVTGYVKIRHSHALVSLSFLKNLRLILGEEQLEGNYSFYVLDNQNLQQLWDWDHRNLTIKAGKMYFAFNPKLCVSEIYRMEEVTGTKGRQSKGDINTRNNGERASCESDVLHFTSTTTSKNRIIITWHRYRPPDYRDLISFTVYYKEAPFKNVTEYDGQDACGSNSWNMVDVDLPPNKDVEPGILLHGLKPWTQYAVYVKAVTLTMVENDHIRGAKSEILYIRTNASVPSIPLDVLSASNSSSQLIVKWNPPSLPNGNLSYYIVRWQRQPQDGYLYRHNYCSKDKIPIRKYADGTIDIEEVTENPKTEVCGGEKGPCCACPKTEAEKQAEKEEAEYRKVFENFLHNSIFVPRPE
Nature of the experiment: Tyrosine phosphorylation of IGF-1 receptor in MCF-7 cells. Particulars: 5 mins., ATA, EB each at 300 μg/ml. On the procedure: FIG. 6 is the effect of ATA and EB on tyrosine phosphorylation of IGF-1 receptor: MCF-7 cells, grown in 100 mm dishes, were treated with ATA, EB each at 300 μg/ml, or 20 ng/ml IGF-1 for 5 mins. Total cell extracts, solubilized in Buffer A, were immunoprecipitated with IGF1R antibody. The immunocomplexes precipitataed with protein G-Sepharose beads, were subjected to 7.5% SDS-PAGE followed by immunoblotting with a phosphotyrosine antibody. The membrane, after ECL detection, was stripped of bound antibody and reblotted with IGF1R antibody (IGF1R).
(§1) Cells were solubilized in Buffer A or C. Extracts were immunoprecipitated at 4° C. with antibodies to IRS-1, IRS-2, IGF-1 or IR receptor or Grb2, adsorbed on protein A-Sepharose beads. The immunocomplexes were pelleted by centrifugation at 12,000×g and washed twice with Buffer A, and twice with Buffer A containing 0.1% Triton x-100. The pellets were then suspended in Laemmli sample buffer and resolved on 7.5% SDS-PAGE.
Nitrocellulose blots of proteins were incubated with the antibodies, and proteins were detected by enhanced chemiluminescence using horseradish peroxidase-labeled protein A, horseradish peroxidase-labeled anti rabbit IgG or horseradish peroxidase-labeled anti-mouse IgG. […]

A further experiment deals with IRS-1. Description: IRS-1 tyrosine phosphorylation and association with p85/Grb2 in MCF-7 cells. Particulars: 5 mins., ATA or EB 300 μg/ml, IGF-1 20 ng/ml. The procedure: FIG. 3 is the effect of ATA and EB on tyrosine phosphorylation or IRS-1: MCF-7 cells grown in 100 mm dishes, were treated with ATA or EB, each at 300 μg/ml, or 20 ng/ml IGF-1 for 5 mins. Total cell extracts, solubilized in Buffer A, were subjected to immunoprecipitation with antibodies to IRS-1 (a) or Grb2 (b). The immunocomplexes, precipitated with protein G-Sepharose beads, were subjected to 7.5% SDS-PAGE followed by immunoblotting with a phosphotyrosine antibody, an antibody to the 85-kDa subunit of PI3-kinase or antibody to IRS-1.
as §1
(§2) Nitrocellulose blots of proteins were incubated with the antibodies, and proteins were detected by enhanced chemiluminescence using horseradish peroxidase-labeled protein A, horseradish peroxidase-labeled anti rabbit IgG or horseradish peroxidase-labeled anti-mouse IgG.
(§3) MCF-7 cells were stimulated with ATA, EB or IGF-1, solubilized and immunoprecipitated with anti IRS-1 or IRS-2 antibodies, separated by SDS-PAGE and immunoblotted with anti-phosphotyrosine antibody. […] The association of IRS-1 with Grb-2 was evaluated in lysates from treated cells which were immunoblotted with antibodies to either phosphotyrosine or IRS-1.

The subject of another experiment is IRS-2. Nature of the experiment: IRS-2 association with p85 of PI3-kinase in MCF-7 cells. As to conditions: 5 mins., ATA or EB 300 μg/ml, IGF-1 20 ng/ml. The procedure:
FIG. 4 is the effect of ATA and EB on tyrosine phosphorylation of IRS-2: MCF-7 cells were treated as in FIG. 3. Total cell extracts, solubilized in Buffer C, were immunoprecipitated with an antibody to IRS-2. The immunocomplexes, precipitated with protein A-Sepharose beads were subjected to 7.5% SDS-PAGE, followed by immunoblotting with a phosphotyrosine antibody and an antibody to the 85-kDA subunit of PI3-kinase.
as §1, §2, §3

For the compound `O=C(O)C1=CC(=C(c2ccc(O)c(C(=O)O)c2)c2ccc(O)c(C(=O)O)c2)C=CC1=O` [ATA, Aurintricarboxylic acid], the Lipogenesis result with 3T3 L1 adipocytes is reported as “increase”. For the same compound, the “Tyrosine phosphorylation of IGF-1 receptor β subunit” value at IGF-1 receptor β subunit is recorded as “phosphorylated the IGF-1 receptor β subunit”. Moreover, in the experiment on IRS-1, the “Association of IRS-1 with Grb-2” value is “IRS-1 co-precipitated with Grb2”, the “Association of p85 subunit of PI3-k with IRS-1” value is on record as “p85 precipitates with IRS-1” and the “Phosphorylation of IRS-1” value was “stimulated the phosphorylation of IRS-1”. The “Association of p85 subunit of PI3-k with IRS-2” value in the experiment with IRS-2 is on record as “p85 precipitates”.

In the case of `Cc1cc(-c2ccc(N=Nc3ccc4c(S(=O)(=O)O)cc(S(=O)(=O)O)c(N)c4c3O)c(C)c2)ccc1N=Nc1ccc2c(S(=O)(=O)O)cc(S(=O)(=O)O)c(N)c2c1O` [EB, Evan's Blue], the Lipogenesis result with 3T3 L1 adipocytes was “increase”. Also, on IGF-1 receptor β subunit, the “Tyrosine phosphorylation of IGF-1 receptor β subunit” value was “phosphorylated the IGF-1 receptor β subunit”. In the experiment on IRS-1, the “Association of IRS-1 with Grb-2” value was “IRS-1 co-precipitated with Grb2”, the “Association of p85 subunit of PI3-k with IRS-1” value is reported as “p85 precipitates with IRS-1” and the “Phosphorylation of IRS-1” value is on record as “stimulated the phosphorylation of IRS-1”. The “Association of p85 subunit of PI3-k with IRS-2” value in the experiment on IRS-2 is given as “p85 precipitates”.
